Measured values as given in ChEMBL document CHEMBL5518235, “Identification of Novel Series of Potent and Selective Relaxin Family Peptide Receptor 1 (RXFP1) Agonists” (J Med Chem, 2024).
pEC50, pIC50: −log10 of the molar value.

Tests used:
[1] = Cytotoxicity against human HepG2 cells cultured under glucose condition assessed as reduction in cell viability; type: toxicity, cell-based
[2] = Volume of distribution at steady state in Han Wistar rat at 0.73 micromol/kg, iv by LC-MS/MS analysis; type: ADME, organism-based; settings: in vivo, dose 0.73 µmol/kg, read-out: Vdss
[3] = target: Lutropin-choriogonadotropic hormone receptor (Homo sapiens, UniProt P22888); experiment: Agonist activity at LSHR (unknown origin) by arrestin technology based assay; type: functional
Sequence of Lutropin-choriogonadotropic hormone receptor (P22888 whole entry): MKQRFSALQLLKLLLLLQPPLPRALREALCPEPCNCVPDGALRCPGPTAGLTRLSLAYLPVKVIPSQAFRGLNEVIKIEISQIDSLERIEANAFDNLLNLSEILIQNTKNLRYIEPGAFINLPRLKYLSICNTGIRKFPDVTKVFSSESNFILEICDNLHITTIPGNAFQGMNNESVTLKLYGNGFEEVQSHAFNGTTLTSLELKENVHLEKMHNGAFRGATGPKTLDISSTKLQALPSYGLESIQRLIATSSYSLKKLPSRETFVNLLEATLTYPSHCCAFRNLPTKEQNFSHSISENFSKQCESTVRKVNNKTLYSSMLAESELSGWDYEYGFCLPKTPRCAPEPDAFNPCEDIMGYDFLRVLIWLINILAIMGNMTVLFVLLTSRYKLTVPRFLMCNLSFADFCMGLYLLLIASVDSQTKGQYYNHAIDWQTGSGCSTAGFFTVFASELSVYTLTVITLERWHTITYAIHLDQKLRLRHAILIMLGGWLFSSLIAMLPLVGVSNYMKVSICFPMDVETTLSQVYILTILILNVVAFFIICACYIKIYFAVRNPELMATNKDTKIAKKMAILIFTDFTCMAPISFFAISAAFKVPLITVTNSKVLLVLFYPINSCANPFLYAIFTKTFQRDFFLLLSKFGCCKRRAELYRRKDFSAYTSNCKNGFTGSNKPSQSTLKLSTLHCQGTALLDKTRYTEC

[4] = Cytotoxicity against human HepG2 cells cultured as C3a spheroids assessed as reduction in cell viability; type: toxicity, cell-based
[5] = Oral bioavailability in Han Wistar rat at 1.46 micromol/kg by LC-MS/MS analysis; type: ADME, organism-based; settings: in vivo, 1.46 µmol/kg
[6] = Metabolic stability in Han Wistar rat hepatocytes assessed as intrinsic clearance measured per 10^6 cells at 1 uM after 120 mins by LC-MS/MS analysis; type: ADME, cell-based, Hepatocyte; settings: read-out: CLH
[7] = target: T1, Leucine-rich repeat-containing G-protein coupled receptor 4 (Homo sapiens, UniProt Q9BXB1); experiment: Agonist activity at LGR4 (unknown origin) by arrestin technology based assay
T1 sequence (Q9BXB1 whole entry): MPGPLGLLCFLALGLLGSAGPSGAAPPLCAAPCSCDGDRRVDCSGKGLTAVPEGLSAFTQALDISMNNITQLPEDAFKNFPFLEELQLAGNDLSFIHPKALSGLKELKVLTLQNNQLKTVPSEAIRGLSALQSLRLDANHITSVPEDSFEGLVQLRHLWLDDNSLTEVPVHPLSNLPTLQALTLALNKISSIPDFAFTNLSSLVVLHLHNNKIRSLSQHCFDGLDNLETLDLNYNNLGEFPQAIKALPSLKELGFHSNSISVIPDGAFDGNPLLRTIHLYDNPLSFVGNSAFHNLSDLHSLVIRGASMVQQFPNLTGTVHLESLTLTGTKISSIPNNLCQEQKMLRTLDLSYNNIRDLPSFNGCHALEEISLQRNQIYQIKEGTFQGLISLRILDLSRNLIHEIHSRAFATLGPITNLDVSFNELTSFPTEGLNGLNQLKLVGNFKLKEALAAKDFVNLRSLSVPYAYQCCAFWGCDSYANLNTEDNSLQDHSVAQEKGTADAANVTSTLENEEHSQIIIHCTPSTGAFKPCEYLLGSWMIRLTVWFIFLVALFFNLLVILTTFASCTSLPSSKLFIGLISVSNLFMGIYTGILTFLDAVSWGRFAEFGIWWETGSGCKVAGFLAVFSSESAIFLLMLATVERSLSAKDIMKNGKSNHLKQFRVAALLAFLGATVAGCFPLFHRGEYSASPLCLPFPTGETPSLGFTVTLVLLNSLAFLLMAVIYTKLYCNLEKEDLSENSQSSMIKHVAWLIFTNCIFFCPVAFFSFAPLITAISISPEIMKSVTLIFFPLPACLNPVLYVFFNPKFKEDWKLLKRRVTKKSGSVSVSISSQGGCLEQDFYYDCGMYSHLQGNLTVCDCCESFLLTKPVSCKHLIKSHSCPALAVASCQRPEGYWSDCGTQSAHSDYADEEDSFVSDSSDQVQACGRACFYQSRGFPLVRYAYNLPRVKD

[8] = target: T2, Relaxin receptor 1 (Homo sapiens, UniProt Q9HBX9); experiment: Agonist activity at human RXFP1 expressed in T-Rex-CHO-K1 cells assessed as stimulation of cAMP production incubated for 45 mins by HTRF assay; type: functional, cell-based
T2 sequence (Q9HBX9 whole entry): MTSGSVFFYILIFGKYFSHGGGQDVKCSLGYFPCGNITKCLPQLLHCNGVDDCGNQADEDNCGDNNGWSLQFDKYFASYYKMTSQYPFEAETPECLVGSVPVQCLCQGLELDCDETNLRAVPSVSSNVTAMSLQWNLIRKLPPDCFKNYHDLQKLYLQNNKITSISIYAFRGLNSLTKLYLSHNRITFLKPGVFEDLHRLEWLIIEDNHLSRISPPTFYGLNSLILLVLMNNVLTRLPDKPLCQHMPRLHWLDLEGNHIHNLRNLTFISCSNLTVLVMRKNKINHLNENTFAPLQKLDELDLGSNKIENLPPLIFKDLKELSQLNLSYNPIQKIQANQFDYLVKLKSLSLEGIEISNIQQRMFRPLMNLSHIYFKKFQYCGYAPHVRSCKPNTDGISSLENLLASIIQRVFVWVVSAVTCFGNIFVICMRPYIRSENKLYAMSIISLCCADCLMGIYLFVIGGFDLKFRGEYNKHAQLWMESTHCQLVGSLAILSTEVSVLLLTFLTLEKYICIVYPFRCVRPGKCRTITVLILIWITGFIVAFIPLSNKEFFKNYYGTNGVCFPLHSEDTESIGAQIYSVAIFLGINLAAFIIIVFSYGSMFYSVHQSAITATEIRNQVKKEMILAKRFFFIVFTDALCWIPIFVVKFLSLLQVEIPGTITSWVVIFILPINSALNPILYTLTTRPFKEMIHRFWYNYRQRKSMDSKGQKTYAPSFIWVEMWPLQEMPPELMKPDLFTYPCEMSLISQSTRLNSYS

[9] = target: Sodium channel protein type 5 subunit alpha (Homo sapiens, UniProt Q14524); experiment: Inhibition of human Nav1.5 by automated electrophysiology recording; type: toxicity
Sequence of Sodium channel protein type 5 subunit alpha (Q14524 whole entry): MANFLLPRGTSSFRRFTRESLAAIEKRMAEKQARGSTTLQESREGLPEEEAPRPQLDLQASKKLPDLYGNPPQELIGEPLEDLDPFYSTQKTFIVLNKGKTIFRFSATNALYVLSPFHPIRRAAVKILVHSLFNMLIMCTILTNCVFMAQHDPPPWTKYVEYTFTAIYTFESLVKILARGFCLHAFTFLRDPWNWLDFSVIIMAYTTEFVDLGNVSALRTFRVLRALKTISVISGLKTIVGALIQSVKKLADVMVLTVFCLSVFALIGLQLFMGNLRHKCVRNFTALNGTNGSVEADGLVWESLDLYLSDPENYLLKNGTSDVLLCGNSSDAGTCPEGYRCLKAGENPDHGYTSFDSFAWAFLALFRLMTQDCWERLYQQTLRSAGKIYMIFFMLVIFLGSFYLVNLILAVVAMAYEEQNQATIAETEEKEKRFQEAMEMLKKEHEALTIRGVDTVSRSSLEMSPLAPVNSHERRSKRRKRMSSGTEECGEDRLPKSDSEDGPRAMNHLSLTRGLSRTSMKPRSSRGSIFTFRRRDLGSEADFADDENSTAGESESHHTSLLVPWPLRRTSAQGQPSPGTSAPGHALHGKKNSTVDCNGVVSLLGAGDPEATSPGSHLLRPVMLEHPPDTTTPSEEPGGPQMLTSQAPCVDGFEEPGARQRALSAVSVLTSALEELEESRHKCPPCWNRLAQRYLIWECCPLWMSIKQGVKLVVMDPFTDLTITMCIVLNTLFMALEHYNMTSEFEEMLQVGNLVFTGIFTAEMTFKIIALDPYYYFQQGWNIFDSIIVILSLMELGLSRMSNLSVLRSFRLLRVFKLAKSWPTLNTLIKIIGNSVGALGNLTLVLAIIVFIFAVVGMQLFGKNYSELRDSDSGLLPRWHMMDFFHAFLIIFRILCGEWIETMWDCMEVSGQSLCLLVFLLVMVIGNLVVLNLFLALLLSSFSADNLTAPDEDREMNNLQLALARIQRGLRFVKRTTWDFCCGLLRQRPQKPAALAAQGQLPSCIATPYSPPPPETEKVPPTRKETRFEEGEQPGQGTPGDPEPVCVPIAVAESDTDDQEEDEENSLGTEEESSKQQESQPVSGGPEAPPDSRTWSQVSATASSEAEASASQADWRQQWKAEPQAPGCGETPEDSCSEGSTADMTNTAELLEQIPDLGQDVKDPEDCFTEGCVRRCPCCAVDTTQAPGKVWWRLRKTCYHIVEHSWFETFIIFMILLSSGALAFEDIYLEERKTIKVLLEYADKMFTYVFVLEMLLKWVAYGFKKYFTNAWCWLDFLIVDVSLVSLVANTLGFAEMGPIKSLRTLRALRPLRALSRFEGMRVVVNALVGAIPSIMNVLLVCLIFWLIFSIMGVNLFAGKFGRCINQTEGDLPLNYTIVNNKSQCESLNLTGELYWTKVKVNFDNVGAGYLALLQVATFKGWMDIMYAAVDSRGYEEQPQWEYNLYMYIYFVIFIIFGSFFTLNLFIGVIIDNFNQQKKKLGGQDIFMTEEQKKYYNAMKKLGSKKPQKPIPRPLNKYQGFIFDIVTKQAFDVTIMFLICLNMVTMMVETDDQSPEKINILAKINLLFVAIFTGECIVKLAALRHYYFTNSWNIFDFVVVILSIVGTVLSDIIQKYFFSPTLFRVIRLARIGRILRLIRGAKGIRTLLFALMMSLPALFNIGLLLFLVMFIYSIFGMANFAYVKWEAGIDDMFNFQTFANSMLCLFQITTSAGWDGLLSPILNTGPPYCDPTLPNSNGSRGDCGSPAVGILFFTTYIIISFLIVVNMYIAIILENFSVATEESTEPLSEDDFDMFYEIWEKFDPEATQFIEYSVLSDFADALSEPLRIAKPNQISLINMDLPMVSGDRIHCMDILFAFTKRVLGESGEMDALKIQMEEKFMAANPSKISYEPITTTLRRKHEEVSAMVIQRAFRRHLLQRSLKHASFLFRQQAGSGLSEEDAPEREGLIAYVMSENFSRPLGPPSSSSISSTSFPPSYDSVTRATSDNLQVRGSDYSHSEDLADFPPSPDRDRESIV

[10] = target: T3, A-type voltage-gated potassium channel KCND3 (Homo sapiens, UniProt Q9UK17); experiment: Inhibition of human Kv4.3 by automated electrophysiology recording; type: toxicity
T3 sequence (Q9UK17 whole entry): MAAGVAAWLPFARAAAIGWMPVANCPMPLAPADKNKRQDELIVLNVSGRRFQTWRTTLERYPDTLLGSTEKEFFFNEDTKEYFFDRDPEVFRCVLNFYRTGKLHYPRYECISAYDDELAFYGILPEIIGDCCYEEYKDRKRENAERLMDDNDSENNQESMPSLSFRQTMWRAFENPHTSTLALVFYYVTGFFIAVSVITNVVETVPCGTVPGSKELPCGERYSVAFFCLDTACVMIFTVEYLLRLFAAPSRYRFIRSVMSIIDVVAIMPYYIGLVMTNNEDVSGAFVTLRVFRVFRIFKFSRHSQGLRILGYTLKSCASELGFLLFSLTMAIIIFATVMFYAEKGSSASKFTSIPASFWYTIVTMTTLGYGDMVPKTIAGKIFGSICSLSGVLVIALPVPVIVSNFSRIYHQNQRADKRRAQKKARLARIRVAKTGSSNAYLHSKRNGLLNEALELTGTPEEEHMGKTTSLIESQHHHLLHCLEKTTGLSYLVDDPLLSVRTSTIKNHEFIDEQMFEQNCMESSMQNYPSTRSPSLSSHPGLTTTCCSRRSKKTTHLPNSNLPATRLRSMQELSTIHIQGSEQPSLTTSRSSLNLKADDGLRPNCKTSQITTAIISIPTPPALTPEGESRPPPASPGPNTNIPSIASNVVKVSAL

[11] = Half-life in Han Wistar rat at 0.73 micromol/kg, iv by LC-MS/MS analysis; type: ADME, organism-based; settings: in vivo, dose 0.73 µmol/kg

## COc1cc(F)c(O[C@H]2CC[C@@](C)(C(=O)O)CC2)cc1C(=O)N[C@@H]1[C@H]2CC[C@H](C2)[C@@H]1C(=O)Nc1ccc(F)c(S(F)(F)(F)(F)F)c1
[1]
  pIC50: 4.17
[2]
  Vd: 2.3 L/kg
[3]
  pEC50: 4.34
[4]
  pIC50: 4.77
[5]
  bioavailability: 11%
[6]
  hepatocyte CLint at 1 µM: 24 µL/min/1e6 cells
[7]
  pEC50: 4.80
[8]
  pEC50: 9.40
[9]
  pIC50: 4.68
[10]
  pIC50: < 4.48
[11]
  half-life: 2.9 h
